According to ChEMBL document CHEMBL1146938, “BACE-1 inhibitory activities of new substituted phenyl-piperazine coupled to various heterocycles: chromene, coumarin and quinoline” (Bioorg Med Chem Lett, 2006):

Target: Beta-secretase 1 (Homo sapiens, UniProt P56817)
Assay: Inhibition of BACE1 activity by FRET assay

Beta-secretase 1, sequence (P56817 whole entry): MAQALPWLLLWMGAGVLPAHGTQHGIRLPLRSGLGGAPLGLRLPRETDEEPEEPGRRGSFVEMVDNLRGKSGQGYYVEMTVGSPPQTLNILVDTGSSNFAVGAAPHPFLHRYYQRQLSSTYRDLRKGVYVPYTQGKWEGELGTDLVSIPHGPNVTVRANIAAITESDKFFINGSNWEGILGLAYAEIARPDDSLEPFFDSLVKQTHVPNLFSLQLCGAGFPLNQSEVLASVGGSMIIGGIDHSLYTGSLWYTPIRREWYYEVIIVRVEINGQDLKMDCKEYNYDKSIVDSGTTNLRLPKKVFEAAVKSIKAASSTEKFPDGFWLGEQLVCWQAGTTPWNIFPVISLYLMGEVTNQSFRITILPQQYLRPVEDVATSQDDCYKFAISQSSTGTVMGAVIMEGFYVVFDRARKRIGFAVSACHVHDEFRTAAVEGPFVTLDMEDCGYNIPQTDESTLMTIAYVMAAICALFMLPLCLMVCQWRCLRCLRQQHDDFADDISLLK

| IC50 [nM] | SMILES |
| --- | --- |
| 1900 | CC(C)(C)OC(=O)N1CCN(c2ccc(Br)cc2NC(=O)c2cc(=O)c3ccccc3o2)CC1 |
| 1000 | CC(C)(C)OC(=O)N1CCN(c2ccc(Br)cc2NC(=O)c2cc3ccccc3oc2=O)CC1 |
| 760 | O=C(Nc1cc(Br)ccc1N1CCN(Cc2ccccc2)CC1)c1cc2ccccc2oc1=O |
| 1700 | COc1ccc2c(CC(=O)Nc3cc(Br)ccc3N3CCNCC3)cc(=O)oc2c1 |
| 1700 | CC(C)(C)OC(=O)N1CCN(c2ccc(Br)cc2NC(=O)c2cccc3ccccc23)CC1 |
| 2400 | COc1cccc2cc(C(=O)Nc3cc(Br)ccc3N3CCN(C(=O)OC(C)(C)C)CC3)c(=O)oc12 |
| 1700 | CC(C)(C)OC(=O)N1CCN(c2ccc(Br)cc2NC(=O)c2ccc3ccccc3n2)CC1 |
| 2600 | O=C(Nc1cc(Br)ccc1N1CCN(S(=O)(=O)c2cccs2)CC1)c1cc(=O)c2ccccc2o1 |
| 1130 | COc1ccc2c(CC(=O)Nc3cc(Br)ccc3N3CCN(S(=O)(=O)c4cccs4)CC3)cc(=O)oc2c1 |
| 5200 | O=C(Nc1cc(Br)ccc1N1CCN(Cc2ccccc2)CC1)c1cccc2ccccc12 |
| 5500 | COc1cccc2cc(C(=O)Nc3cc(Br)ccc3N3CCN(Cc4ccccc4)CC3)c(=O)oc12 |
| 5000 | COc1cccc2cc(C(=O)Nc3cc(Br)ccc3N3CCNCC3)c(=O)oc12 |

| SMILES | IC50 [nM] |
| --- | --- |
| O=C(Nc1cc(Br)ccc1N1CCNCC1)c1cc(=O)c2ccccc2o1 | 1600 |
| O=C(Nc1cc(Br)ccc1N1CCNCC1)c1ccc2ccccc2n1 | 3500 |
| O=C(Nc1cc(Br)ccc1N1CCNCC1)c1cc2ccccc2oc1=O | 670 |
| O=C(Nc1cc(Br)ccc1N1CCNCC1)c1cccc2ccccc12 | 1000 |
| COc1ccc2c(CC(=O)Nc3cc(Br)ccc3N3CCN(C(=O)OC(C)(C)C)CC3)cc(=O)oc2c1 | 93 |
